Assay results published in patent publication US20250000805A1, “VALBENAZINE COMPOSITIONS” (Neurocrine Biosciences, Inc., priority 2021, published 2025).

Assay: Stability of dissolution standards and dissolution samples at ambient lab conditions
Type: physicochemical
Method: 40.5±4.0 mg of valbenazine ditosylate reference standard (equivalent to 22.22 mg of valbenazine free base) was added to a 250-mL volumetric flask. Diluent (0.1 N HCl dissolution media) was added to the flask, up to about 75% of the volume of the flask. The contents of the flask were mixed well, and sonicated if necessary, to provide a standard solution containing 0.0889 mg/mL valbenazine free base. The standard was stable for 17 days, stored at ambient lab conditions.
10.12±1.0 mg of valbenazine ditosylate reference standard (equivalent to 5.55 mg of valbenazine free base) was added to a 250-mL volumetric flask. Diluent (0.1N HCl dissolution media) was added to the flask, up to about 75% of the volume of the flask. […]
(§1) Dissolution was measured according to Table 8, above. After completion of the dissolution, the end temperature and observations for each vessel were recorded. […]
as §1
(§2) Dissolution was measured according to Table 9, above. After completion of the dissolution, the end temperature and observations for each vessel were recorded. […]
as §2

time the dissolution standard was stable (0.0222 mg/mL valbenazine free base in 0.1N HCl): 7 days
time the dissolution standard was stable (0.0889 mg/mL valbenazine free base in 0.1 N HCl): 17 days
Structure (SMILES): COc1cc2c(cc1OC)[C@H]1C[C@@H](OC(=O)[C@@H](N)C(C)C)[C@H](CC(C)C)CN1CC2.Cc1ccc(S(=O)(=O)O)cc1.Cc1ccc(S(=O)(=O)O)cc1 [L-Valine, (2R,3R,11bR)-1,3,4,6,7,11b-hexahydro-9,10-dimethoxy-3-(2-methylpropyl)-2H-benzo[a]quinolizin-2-yl ester, 4-methylbenzenesulfonate (1:2)]
